Results published in patent US9540691B2, “Assays and methods for selecting a treatment regimen for a subject with depression” (THE GENERAL HOSPITAL CORPORATION, priority 2011, dated 2017).
Where two headings read alike, the source gives them in different places. Marks after values point to notes of the source that are not given here.

System: MDD patients carrying the indicated conditions
Experimental: Folate levels are classified as either low (<=2.5 ng/ml) or normal; and homocysteine levels as either normal or elevated (>=[…]). The presence or absence of at least one […] allele for the MTHFR gene are entered as a dichotomous variable (present or absent). […] Using folate as an example predicator, the presence or absence of a low serum-folate level along with treatment assignment can be entered in a 2×2, factorial ANOVA, using depression improvement scores (baseline minus endpoint HAM-D-17 scores) as the dependant variable. […] Similar analyses (i.e. separate 2×2 ANOVA's) can be performed substituting the presence of low folate levels for the presence of other predictors as described herein. Similarly, the effect of other predictors can be indicated by the interaction term representing the potential modulating influence of those variables.
Particularly, specific genetic and biomarkers that were assessed include the following: • (a) BMI calculation of at least about 30 kg/m^2; • (b) an expression ratio of SAM/SAH smaller than 2.8 (e.g., 2.71) as measured in a plasma sample; • (c) a level of 4-HNE no less than 3.28 μg/mL (as measured in a plasma sample); • (d) presence of rare variants CT or TT at position 677 of SEQ ID NO: 1 corresponding to a portion of a genomic nucleic acid sequence of methylenetetrahydrofolate reductase (MTHFR) (abbreviated as “MTHFR 677” below); • (e) presence of rare variants AG or GG at position 2756 of SEQ ID NO: 2 corresponding to a portion of genomic nucleic acid sequence of methionine synthase (MTR) (abbreviated as “MTR 2756” below); and • (f) presence of rare variants AG or GG at position 66 of SEQ ID NO: 3 corresponding to a portion of genomic nucleic acid sequence of methionine synthase reductase (MTRR) (abbreviated as “MTRR 66” below).
The efficacy effect is determined by measuring the mean change in the HAMD-17 score and HAMD-28 score by the end of Phase I and Phase II, as compared to the baseline.

[1] = Pooled phases, interaction of BMI with the treatment, with SSRI
[2] = Pooled phases, interaction of HNE-his with the treatment, with SSRI
[3] = Pooled phases, interaction of SAM/SAH with the treatment, with SSRI

For CN1c2c(nc(N)[nH]c2=O)NC[C@@H]1CNc1ccc(C(=O)N[C@@H](CCC(=O)O)C(=O)O)cc1 [6(S)-5-MTHF, 6(S)-5-methyltetrahydrofolate], the “Effect, change in HAMD-17 score” value (Pooled phases, MTHFR 677 CC and MTR 2756 AA (29,13), with SSRI) was 0.722, the “Effect, change in HAMD-28 score” value (Pooled phases, MTHFR 677 CC and MTR 2756 AA, with SSRI) was 0.711 and the “Effect, change in HAMD-17 score” value (Pooled phases, MTHFR 677 CT or TT and BMI >= 30 kg/m^2 (13,6), with SSRI) was −8.090. For the same molecule, the “Effect, change in HAMD-28 score” value (Pooled phases, MTHFR 677 CT or TT and BMI >= 30 kg/m^2, with SSRI) was −9.884, the “Effect, change in HAMD-17 score” value (Pooled phases, MTHFR 677 CT or TT and HNE-His >= median (11,6), with SSRI) was −9.446 and the “Effect, change in HAMD-28 score” value (Pooled phases, MTHFR 677 CT or TT and HNE-His >= median, with SSRI) was −9.865. The “Effect, change in HAMD-17 score” value (Pooled phases, MTHFR 677 CT or TT and MTR 2756 AG or GG (8,4), with SSRI) was −18.71, the “Effect, change in HAMD-28 score” value (Pooled phases, MTHFR 677 CT or TT and MTR 2756 AG or GG, with SSRI) was −23.29 and the “Effect, change in HAMD-17 score” value (Pooled phases, MTR 2756 AA (45,21), with SSRI) was −0.590. The “Effect, change in HAMD-17 score” value (Pooled phases, MTR 2756 AA and BMI < 30 kg/m^2 (17,7), with SSRI) was 3.196, the “Effect, change in HAMD-28 score” value (Pooled phases, MTR 2756 AA and BMI < 30 kg/m^2, with SSRI) was 3.352 and the “Effect, change in HAMD-17 score” value (Pooled phases, MTR 2756 AA and HNE-His < median (26,13), with SSRI) was 1.319. The “Effect, change in HAMD-28 score” value (Pooled phases, MTR 2756 AA and HNE-His < median, with SSRI) was 2.085, the “Effect, change in HAMD-17 score” value (Pooled phases, MTR 2756 AA and MTRR 66 AA (11,5), with SSRI) was −1.373 and the “Effect, change in HAMD-17 score” value (Pooled phases, MTR 2756 AA and MTRR 66 AA and HNE-His < median (6,4), with SSRI) was 0.466. For the same molecule, the “Effect, change in HAMD-28 score” value (Pooled phases, MTR 2756 AA and MTRR 66 AA and HNE-His < median = 3.28 (plasma sample), with SSRI) was −2.221, the “Effect, change in HAMD-17 score” value (Pooled phases, MTR 2756 AA and MTRR 66 AA and SAM/SAH >= median (6,3), with SSRI) was −3.98* and the “Effect, change in HAMD-28 score” value (Pooled phases, MTR 2756 AA and MTRR 66 AA and SAM/SAH >= median, with SSRI) was −3.74*. The “Effect, change in HAMD-28 score” value (Pooled phases, MTR 2756 AA and MTRR 66 AA, with SSRI) was −3.032, the “Effect, change in HAMD-17 score” value (Pooled phases, MTR 2756 AA and SAM/SAH >= median (24,12), with SSRI) was 0.054 and the “Effect, change in HAMD-28 score” value (Pooled phases, MTR 2756 AA and SAM/SAH >= median, with SSRI) was −0.071. For the same molecule, the “Effect, change in HAMD-28 score” value (Pooled phases, MTR 2756 AA, with SSRI) was −0.047, the “Effect, change in HAMD-17 score” value (Pooled phases, MTR 2756 AG or GG and BMI >= 30 kg/m^2 (10,5), with SSRI) was −11.714 and the “Effect, change in HAMD-28 score” value (Pooled phases, MTR 2756 AG or GG and BMI >= 30 kg/m^2, with SSRI) was −14.433. The “Effect, change in HAMD-17 score” value (Pooled phases, MTR 2756 AG or GG and HNE-His >= median (13,7), with SSRI) was −8.072, the “Effect, change in HAMD-28 score” value (Pooled phases, MTR 2756 AG or GG and HNE-His >= median = 3.28 (plasma sample), with SSRI) was −9.508 and the “Effect, change in HAMD-17 score” value (Pooled phases, MTR 2756 AG or GG and MTRR 66 AG or GG (15,7), with SSRI) was −6.976. The “Effect, change in HAMD-17 score” value (Pooled phases, MTR 2756 AG or GG and MTRR 66 AG or GG and BMI >= 30 kg/m^2 (8,4), with SSRI) was −10.972, the “Effect, change in HAMD-28 score” value (Pooled phases, MTR 2756 AG or GG and MTRR 66 AG or GG and BMI >= 30 kg/m^2, with SSRI) was −15.347 and the “Effect, change in HAMD-17 score” value (Pooled phases, MTR 2756 AG or GG and MTRR 66 AG or GG and HNE-His >= median (10,4), with SSRI) was −7.942. The “Effect, change in HAMD-28 score” value (Pooled phases, MTR 2756 AG or GG and MTRR 66 AG or GG and HNE-His >= median, with SSRI) was −10.241, the “Effect, change in HAMD-28 score” value (Pooled phases, MTR 2756 AG or GG and MTRR 66 AG or GG, with SSRI) was −9.348 and the “Effect, change in HAMD-17 score” value (Pooled phases, MTR 2756 AG or GG and SAM/SAH < median (10,4), with SSRI) was −5.583. The “Effect, change in HAMD-28 score” value (Pooled phases, MTR 2756 AG or GG and SAM/SAH < median = 2.71 (plasma sample), with SSRI) was −11.683, the “Effect, change in HAMD-17 score” value (Pooled phases, MTR 2756 AG/GG (20,11), with SSRI) was −5.677 and the “Effect, change in HAMD-28 score” value (Pooled phases, MTR 2756 AG/GG, with SSRI) was −8.243. For the same molecule, the “Effect, change in HAMD-17 score” value (Pooled phases, MTRR 66 AA and HNE-His < median (8,5), with SSRI) was 2.575, the “Effect, change in HAMD-28 score” value (Pooled phases, MTRR 66 AA and HNE-His < median = 3.28 (plasma sample), with SSRI) was −2.626 and the “Effect, change in HAMD-17 score” value (Pooled phases, MTRR 66 AA and SAM/SAH >= median (9,6), with SSRI) was −2.978. For the same molecule, the “Effect, change in HAMD-28 score” value (Pooled phases, MTRR 66 AA and SAM/SAH >= median, with SSRI) was −1.221, the “Effect, change in HAMD-17 score” value (Pooled phases, MTRR 66 AG or GG and HNE-His >= median (24,11), with SSRI) was −4.850 and the “Effect, change in HAMD-17 score” value (Pooled phases, MTRR 66 AG or GG and SAM/SAH < median (24,10), with SSRI) was −5.879. The “Effect, change in HAMD-28 score” value (Pooled phases, MTRR 66 AG or GG and SAM/SAH < median = 2.71 (plasma sample), with SSRI) was −6.579, the “Effect, change in HAMD-17 score” value (Pooled phases, SAM/SAH < median and HNE-His >= median (19,7), with SSRI) was −9.898 and the “Effect, change in HAMD-28 score” value (Pooled phases, SAM/SAH < median and HNE-His >= median, with SSRI) was −9.500. For the same molecule, the “Effect, change in HAMD-17 score” value (Pooled phases, SAM/SAH >= median and HNE-His < median (18,8), with SSRI) was 2.107, the “Effect, change in HAMD-28 score” value (Pooled phases, SAM/SAH >= median and HNE-His < median, with SSRI) was 2.413 and the “Effect, change in HAMD-17 score: BMI*treat” value [1] was −0.233. For the same molecule, the “Effect, change in HAMD-28 score: BMI*treat” value [1] was −0.270, the “Effect, change in HAMD-17 score: HNE-his*treat” value [2] was 0.626 and the “Effect, change in HAMD-28 score: HNE-his*treat” value [2] was 0.685. For the same molecule, the “Effect, change in HAMD-17 score: SAM/SAH*treat” value [3] was 0.882, the “Effect, change in HAMD-28 score: SAM/SAH*treat (last line)” value [3] was 1.112 and the “Effect, change in HAMD-17 score: baseHAMD-17*treat” value (Pooled phases, interaction of base HAMD-17 with the treatment, with SSRI) was −0.025. The “Effect, change in HAMD-28 score: SAM/SAH*treat (first line under HAMD28)” value (Pooled phases, interaction with the treatment, with SSRI) was 0.882, the “improvement in HDRS-28 or CGI-S, patients with at least one T allele at MTHFR 677 vs no T allele (in words)” value (in combination with an SSRI, FIGS. 4A-4B) was “greater degree of improvement” and the “improvement in HAMD-28 or CGI-S, obese (BMI at least 30 kg/m^2) vs non-obese patients (in words)” value (in combination with an SSRI, FIGS. 5A-5B) was “greater degree of improvement”.
